Test results taken from patent US6376426B1, “Herbicidal 3-(heterocycl-1-yl)-uracils” (BASF Aktiengesellschaft, priority 1999, dated 2002).

How the values were obtained:
Type in all cases: in vivo
Triticum aestivum [1] = assay: Pre-emergence herbicidal test, TRZAW; settings: 21 days after spraying
Method: (§1) To evaluate their herbicidal activity, compounds according to the invention are tested using a representative range of plants:
(§2) The pre-emergence tests involve spraying a liquid formulation of the compound onto the soil in which the seeds of the plant species mentioned above has recently been sown.
(§3) The soil used in the tests is a prepared horticultural loam. The formulations used in the tests are prepared from solutions of the test compounds in acetone containing 0.4% by weight of an alkylphenol/ethylene oxide condensate available under the trade mark TRITON X-155. […] In these tests untreated sown soil are used as controls.
(§4) The herbicidal effects of the test compounds are assessed visually twenty-one days after spraying the foliage and the soil and are recorded on a 0-9 scale. A rating 0 indicates growth as untreated control, a rating 9 indicates death. An increase of 1 unit on the linear scale approximates to a 10% increase in the level of effect.

Zea mays [2] = assay: Pre-emergence herbicidal test, ZEAMX; parameters: key to herbicidal effect (0-9 scale) ZEAMX / herbicidal rating ZEAMX: A rating 0 indicates growth as untreated control; a rating 9 indicates death; settings: for herbicidal effect (0-9 scale) ZEAMX: PRE, 21 days after spraying
Method: as §1, §2, §3, §4

Setaria viridis [3] = assay: Pre-emergence herbicidal test, SETVI; parameters: key to herbicidal effect (0-9 scale) SETVI / herbicidal rating SETVI: A rating 0 indicates growth as untreated control; a rating 9 indicates death; settings: for herbicidal effect (0-9 scale) SETVI: PRE, 21 days after spraying
Method: as §1, §2, §3, §4

Echinochloa crus-galli [4] = assay: Pre-emergence herbicidal test, ECHCG; settings: 21 days after spraying
Method: as §1, §2, §3, §4

Alopecurus myosuroides [5] = assay: Pre-emergence herbicidal test, ALOMY; settings: PRE, 21 days after spraying
Method: as §1, §2, §3, §4

Ipomoea hederacea [6] = assay: Pre-emergence herbicidal test, IPOHE; parameters: key: A rating 0 indicates growth as untreated control; a rating 9 indicates death; settings: 21 days after spraying
Method: as §1, §2, §3, §4

Galium aparine [7] = assay: Pre-emergence herbicidal test, GALAP; settings: PRE, 21 days after spraying
Method: as §1, §2, §3, §4

Abutilon theophrasti [8] = assay: Pre-emergence herbicidal test, ABUTH; parameters: key to herbicidal effect (0-9 scale) ABUTH / herbicidal rating ABUTH: A rating 0 indicates growth as untreated control; a rating 9 indicates death; settings: for herbicidal effect (0-9 scale) ABUTH: PRE, 21 days after spraying
Method: as §1, §2, §3, §4

Stellaria media [9] = assay: Pre-emergence herbicidal test, STEME; parameters: key to herbicidal effect (0-9 scale) STEME / herbicidal rating STEME: A rating 0 indicates growth as untreated control; a rating 9 indicates death; settings: PRE, 21 days after spraying
Method: as §1, §2, §3, §4

Matricaria inodora [10] = assay: Pre-emergence herbicidal test, MATIN; parameters: key to herbicidal effect (0-9 scale) MATIN / herbicidal rating MATIN: A rating 0 indicates growth as untreated control; a rating 9 indicates death; settings: for herbicidal effect (0-9 scale) MATIN: PRE, 21 days after spraying
Method: as §1, §2, §3, §4

Triticum aestivum [11] = assay: Post-emergence herbicidal test, TRZAW; parameters: key to herbicidal effect (0-9 scale) TRZAW: A rating 0 indicates growth as untreated control; a rating 9 indicates death; settings: for herbicidal effect (0-9 scale) TRZAW: POST, 21 days after spraying
Method: as §1
(§5) […] After spraying, the plants are placed on greenhouse benches and are cared for in the usual manner, commensurate with conventional greenhouse practices.
as §4

Zea mays [12] = assay: Post-emergence herbicidal test, ZEAMX; settings: 21 days after spraying
Method: as §1, §5, §4

Setaria viridis [13] = assay: Post-emergence herbicidal test, SETVI; parameters: key to herbicidal effect (0-9 scale) SETVI / herbicidal rating SETVI: A rating 0 indicates growth as untreated control; a rating 9 indicates death; settings: for herbicidal effect (0-9 scale) SETVI: POST, 21 days after spraying
Method: as §1, §5, §4

Echinochloa crus-galli [14] = assay: Post-emergence herbicidal test, ECHCG; settings: 21 days after spraying
Method: as §1, §5, §4

Alopecurus myosuroides [15] = assay: Post-emergence herbicidal test, ALOMY; settings: 21 days after spraying
Method: as §1, §5, §4

Ipomoea hederacea [16] = assay: Post-emergence herbicidal test, IPOHE; parameters: key to herbicidal effect (0-9 scale) IPOHE / herbicidal rating IPOHE: A rating 0 indicates growth as untreated control; a rating 9 indicates death; settings: POST, 21 days after spraying
Method: as §1, §5, §4

Galium aparine [17] = assay: Post-emergence herbicidal test, GALAP; parameters: key to herbicidal effect (0-9 scale) GALAP / herbicidal rating GALAP: A rating 0 indicates growth as untreated control; a rating 9 indicates death; settings: for herbicidal effect (0-9 scale) GALAP: POST, 21 days after spraying
Method: as §1, §5, §4

Abutilon theophrasti [18] = assay: Post-emergence herbicidal test, ABUTH; parameters: key to herbicidal effect (0-9 scale) ABUTH / herbicidal rating ABUTH: A rating 0 indicates growth as untreated control; a rating 9 indicates death; settings: POST, 21 days after spraying
Method: as §1, §5, §4

Stellaria media [19] = assay: Post-emergence herbicidal test, STEME; parameters: key to herbicidal effect (0-9 scale) STEME / herbicidal rating STEME: A rating 0 indicates growth as untreated control; a rating 9 indicates death; settings: POST, 21 days after spraying
Method: as §1, §5, §4

Matricaria inodora [20] = assay: Post-emergence herbicidal test, MATIN; parameters: key to herbicidal effect (0-9 scale) MATIN / herbicidal rating MATIN: A rating 0 indicates growth as untreated control; a rating 9 indicates death; settings: POST, 21 days after spraying
Method: as §1, §5, §4

Cyperus = assay: Pre-emergence herbicidal test, Cyperus; settings: 100 g/ha
Method: as §2, §3, §4

Ambrosia = assay: Pre-emergence herbicidal test, Ambrosia; settings: 100 g/ha
Method: as §2, §3, §4

[21] = tested on: representative range of plants; assay: Pre-emergence herbicidal test, summary over the plants tested; settings: 400 g/ha
Method: as §1, §2, §3, §4

[22] = tested on: representative range of plants; assay: Post-emergence herbicidal test, summary over the plants tested
Method: as §1, §5, §4

[23] = tested on: representative range of plants; assay: Herbicidal activity, pre- and post-emergence, overall; settings: both in pre- and post-emergence
Method: as §1, §2
The soil used in the tests is a prepared horticultural loam. The formulations used in the tests are prepared from solutions of the test compounds in acetone containing 0.4% by weight of an alkylphenol/ethylene oxide condensate available under the trade mark TRITON X-155. These acetone solutions are diluted with water and the resulting formulations applied at dosage levels corresponding to 1000 g and 250 g/ha of active material per hectare in a volume equivalent to 900 litres per hectare. In these tests untreated sown soil are used as controls.
These acetone solutions are diluted with water and the resulting formulations applied at dosage levels equivalent to about 1000, 800, 400, 250 or 100 g/ha per hectare of test compound per pot. After spraying, the plants are placed on greenhouse benches and are cared for in the usual manner, commensurate with conventional greenhouse practices.
as §4

`Cn1c(C(F)(F)F)cc(=O)n(-n2ncc3cc([N+](=O)[O-])ccc32)c1=O` [Example 7] was tested, and the “herbicidal effect (0-9 scale) TRZAW” value (Triticum aestivum [1]; 100 g/ha) was 1, the “herbicidal effect (0-9 scale) TRZAW” value (Triticum aestivum [1]; 400 g/ha) was 4 and the “herbicidal effect (0-9 scale) ZEAMX” value (Zea mays [2]; 100 g/ha) was 0. The “herbicidal effect (0-9 scale) ZEAMX” value (Zea mays [2]; 400 g/ha) was 4, the “selectivity in maize” value (Zea mays [2]; pre-emergence, 100 g/ha) was “surprisingly good selectivity” and the “herbicidal effect (0-9 scale) SETVI” value (Setaria viridis [3]; 100 g/ha) was 8. The “herbicidal effect (0-9 scale) SETVI” value (Setaria viridis [3]; 400 g/ha) was 9, the “control of Setaria” value (Setaria viridis [3]; pre-emergence, 100 g/ha) was “good control” and the “herbicidal effect (0-9 scale) ECHCG” value (Echinochloa crus-galli [4]; 100 g/ha) was 7. The “herbicidal effect (0-9 scale) ECHCG” value (Echinochloa crus-galli [4]; 400 g/ha) was 8, the “herbicidal effect (0-9 scale) ALOMY” value (Alopecurus myosuroides [5]; 100 g/ha) was 3 and the “herbicidal effect (0-9 scale) ALOMY” value (Alopecurus myosuroides [5]; 400 g/ha) was 6. For the same compound, the “herbicidal effect (0-9 scale) IPOHE” value (Ipomoea hederacea [6]; 100 g/ha) was 7, the “herbicidal effect (0-9 scale) IPOHE” value (Ipomoea hederacea [6]; 400 g/ha) was 9 and the “herbicidal effect (0-9 scale) GALAP” value (Galium aparine [7]; 100 g/ha) was 4. For the same compound, the “herbicidal effect (0-9 scale) GALAP” value (Galium aparine [7]; 400 g/ha) was 8, the “herbicidal effect (0-9 scale) ABUTH” value (Abutilon theophrasti [8]; 100 g/ha) was 9 and the “herbicidal effect (0-9 scale) ABUTH” value (Abutilon theophrasti [8]; 400 g/ha) was 9. The “control of Abutilon” value (Abutilon theophrasti [8]; pre-emergence, 100 g/ha) was “good control”, the “herbicidal effect (0-9 scale) STEME” value (Stellaria media [9]; 100 g/ha) was 5 and the “herbicidal effect (0-9 scale) STEME” value (Stellaria media [9]; 400 g/ha) was 9. The “herbicidal effect (0-9 scale) MATIN” value (Matricaria inodora [10]; 100 g/ha) was 9, the “herbicidal effect (0-9 scale) MATIN” value (Matricaria inodora [10]; 400 g/ha) was 9 and the “control of Matricaria” value (Matricaria inodora [10]; pre-emergence, 100 g/ha) was “good control”. The “herbicidal effect (0-9 scale) TRZAW” value (Triticum aestivum [11]; 25 g/ha) was 0, the “herbicidal effect (0-9 scale) TRZAW” value (Triticum aestivum [11]; 100 g/ha) was 1 and the “herbicidal effect (0-9 scale) TRZAW” value (Triticum aestivum [11]; 400 g/ha) was 3. For the same compound, the “wheat tolerance” value (Triticum aestivum [11]; post-emergence, 100 g/ha) was “good wheat tolerance”, the “herbicidal effect (0-9 scale) ZEAMX” value (Zea mays [12]; 25 g/ha) was 2 and the “herbicidal effect (0-9 scale) ZEAMX” value (Zea mays [12]; 100 g/ha) was 3. For the same compound, the “herbicidal effect (0-9 scale) ZEAMX” value (Zea mays [12]; 400 g/ha) was 5, the “herbicidal effect (0-9 scale) SETVI” value (Setaria viridis [13]; 25 g/ha) was 8 and the “herbicidal effect (0-9 scale) SETVI” value (Setaria viridis [13]; 100 g/ha) was 9. The “herbicidal effect (0-9 scale) SETVI” value (Setaria viridis [13]; 400 g/ha) was 9, the “control of Setaria” value (Setaria viridis [13]; post-emergence, 100 g/ha) was “excellent control” and the “herbicidal effect (0-9 scale) ECHCG” value (Echinochloa crus-galli [14]; 25 g/ha) was 2. The “herbicidal effect (0-9 scale) ECHCG” value (Echinochloa crus-galli [14]; 100 g/ha) was 7, the “herbicidal effect (0-9 scale) ECHCG” value (Echinochloa crus-galli [14]; 400 g/ha) was 8 and the “herbicidal effect (0-9 scale) ALOMY” value (Alopecurus myosuroides [15]; 25 g/ha) was 2. For the same compound, the “herbicidal effect (0-9 scale) ALOMY” value (Alopecurus myosuroides [15]; 100 g/ha) was 4, the “herbicidal effect (0-9 scale) ALOMY” value (Alopecurus myosuroides [15]; 400 g/ha) was 6 and the “herbicidal effect (0-9 scale) IPOHE” value (Ipomoea hederacea [16]; 25 g/ha) was 9. The “herbicidal effect (0-9 scale) IPOHE” value (Ipomoea hederacea [16]; 100 g/ha) was 9, the “herbicidal effect (0-9 scale) IPOHE” value (Ipomoea hederacea [16]; 400 g/ha) was 9 and the “herbicidal effect (0-9 scale) GALAP” value (Galium aparine [17]; 25 g/ha) was 6. For the same compound, the “herbicidal effect (0-9 scale) GALAP” value (Galium aparine [17]; 100 g/ha) was 8, the “herbicidal effect (0-9 scale) GALAP” value (Galium aparine [17]; 400 g/ha) was 9 and the “control of Galium aparine” value (Galium aparine [17]; post-emergence, 100 g/ha) was “excellent control”. For the same compound, the “herbicidal effect (0-9 scale) ABUTH” value (Abutilon theophrasti [18]; 25 g/ha) was 8, the “herbicidal effect (0-9 scale) ABUTH” value (Abutilon theophrasti [18]; 100 g/ha) was 9 and the “herbicidal effect (0-9 scale) ABUTH” value (Abutilon theophrasti [18]; 400 g/ha) was 9. The “herbicidal effect (0-9 scale) STEME” value (Stellaria media [19]; 25 g/ha) was 4, the “herbicidal effect (0-9 scale) STEME” value (Stellaria media [19]; 100 g/ha) was 8 and the “herbicidal effect (0-9 scale) STEME” value (Stellaria media [19]; 400 g/ha) was 9. For the same compound, the “herbicidal effect (0-9 scale) MATIN” value (Matricaria inodora [20]; 25 g/ha) was 7, the “herbicidal effect (0-9 scale) MATIN” value (Matricaria inodora [20]; 100 g/ha) was 8 and the “herbicidal effect (0-9 scale) MATIN” value (Matricaria inodora [20]; 400 g/ha) was 9. For the same compound, the “control of Cyperus” value (Cyperus) was “good control”, the “control of Ambrosia” value (Ambrosia) was “good control” and the “control of the weeds” value [21] was “all of the weeds except Alopecurus were well controlled”. The “control of all of the broadleaf weeds” value ([22]; 100 g/ha) was “excellent control”, the “control of the weeds” value ([22]; dose not given) was “good cross spectrum control on both broadleaf weeds and grasses except Alopecurus” and the “crop tolerance” value ([22]; dose not given) was “no observable crop tolerance”. The “herbicidal performance” value [23] was “good performance”.
